Data reported in PubChem BioAssay (NCI).
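GI50 is the concentration that inhibits growth by half. At the TGI there is no net growth.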

Key:
Assay in all cases: growth of human tumour cells (NCI), 384-well format
SK-MEL-28 melanoma = test system: SK-MEL-28 melanoma
SK-MEL-2 melanoma = test system: SK-MEL-2 melanoma
NCI-H226 lung = test system: NCI-H226 lung
KM12 colon = test system: KM12 colon
NCI-H522 lung = test system: NCI-H522 lung
HL-60(TB) leukemia = test system: HL-60(TB) leukemia
UACC-62 melanoma = test system: UACC-62 melanoma
HOP-62 NSCLC = test system: HOP-62 NSCLC
MOLT-4 leukemia = test system: MOLT-4 leukemia
MDA-MB-231 breast = test system: MDA-MB-231 breast
HCC-2998 colon = test system: HCC-2998 colon
NCI-H322M lung = test system: NCI-H322M lung
CAKI-1 renal = test system: CAKI-1 renal
NCI-H23 lung = test system: NCI-H23 lung
HCT-15 colon = test system: HCT-15 colon
MDA-MB-468 breast = test system: MDA-MB-468 breast
SW-620 colon = test system: SW-620 colon
DU-145 prostate = test system: DU-145 prostate
HOP-92 NSCLC = test system: HOP-92 NSCLC
MCF7 breast = test system: MCF7 breast
NCI-H460 NSCLC = test system: NCI-H460 NSCLC
RXF 393 renal = test system: RXF 393 renal
K-562 leukemia = test system: K-562 leukemia
PC-3 prostate = test system: PC-3 prostate
CCRF-CEM leukemia = test system: CCRF-CEM leukemia
SF-295 CNS = test system: SF-295 CNS
LOX IMVI melanoma = test system: LOX IMVI melanoma
U251 glioblastoma = test system: U251 glioblastoma
BT-549 breast = test system: BT-549 breast
IGROV1 ovarian = test system: IGROV1 ovarian
SF-268 CNS = test system: SF-268 CNS
ACHN renal = test system: ACHN renal
A549 NSCLC = test system: A549 NSCLC
SNB-75 CNS = test system: SNB-75 CNS
OVCAR-3 ovarian = test system: OVCAR-3 ovarian
786-0 renal = test system: 786-0 renal
SN12C renal = test system: SN12C renal
OVCAR-4 ovarian = test system: OVCAR-4 ovarian
NCI/ADR-RES ovarian = test system: NCI/ADR-RES ovarian
UO-31 renal = test system: UO-31 renal
MDA-MB-435 melanoma = test system: MDA-MB-435 melanoma
M14 melanoma = test system: M14 melanoma
EKVX NSCLC = test system: EKVX NSCLC
HT29 colon = test system: HT29 colon
HS 578T breast = test system: HS 578T breast
MALME-3M melanoma = test system: MALME-3M melanoma
TK-10 renal = test system: TK-10 renal

## Cc1cc2c(cc1C)NC1=C(N2)OC(c2c3ccccc3cc3ccccc23)C1=O (stereo not drawn)
SK-MEL-28 melanoma
  GI50: 0.573 µM
  TGI: 4.41 µM
SK-MEL-2 melanoma
  GI50: 0.224 µM
  TGI: 0.415 µM
NCI-H226 lung
  GI50: 0.743 µM
  TGI: 1.86 µM
KM12 colon
  GI50: 0.31 µM
  TGI: 0.964 µM
NCI-H522 lung
  GI50: 0.192 µM
  TGI: 0.385 µM
HL-60(TB) leukemia
  GI50: 0.212 µM
  TGI: 0.363 µM
UACC-62 melanoma
  GI50: 0.329 µM
  TGI: 1.25 µM
HOP-62 NSCLC
  GI50: 0.325 µM
  TGI: 0.825 µM
MOLT-4 leukemia
  GI50: 0.193 µM
  TGI: 0.337 µM
MDA-MB-231 breast
  GI50: 0.554 µM
  TGI: 2.81 µM
HCC-2998 colon
  GI50: 0.688 µM
  TGI: 1.57 µM
NCI-H322M lung
  GI50: 1.22 µM
  TGI: 7.46 µM
CAKI-1 renal
  GI50: 0.75 µM
  TGI: 5.69 µM
NCI-H23 lung
  GI50: 0.288 µM
  TGI: 0.763 µM
HCT-15 colon
  GI50: 0.261 µM
  TGI: 0.711 µM
MDA-MB-468 breast
  GI50: 0.218 µM
  TGI: 0.436 µM
SW-620 colon
  GI50: 0.454 µM
  TGI: 7.47 µM
DU-145 prostate
  GI50: 0.429 µM
  TGI: 1.43 µM
HOP-92 NSCLC
  GI50: 0.398 µM
  TGI: 1.49 µM
MCF7 breast
  GI50: 0.397 µM
  TGI: 1.91 µM
NCI-H460 NSCLC
  GI50: 0.26 µM
  TGI: 0.654 µM
RXF 393 renal
  GI50: 0.285 µM
  TGI: 0.513 µM
K-562 leukemia
  GI50: 0.208 µM
  TGI: 0.491 µM
PC-3 prostate
  GI50: 0.422 µM
  TGI: 1.44 µM
CCRF-CEM leukemia
  GI50: 0.194 µM
  TGI: 0.341 µM
SF-295 CNS
  GI50: 0.208 µM
  TGI: 0.495 µM
LOX IMVI melanoma
  GI50: 0.361 µM
  TGI: 1.35 µM
U251 glioblastoma
  GI50: 0.281 µM
  TGI: 0.691 µM
BT-549 breast
  GI50: 0.27 µM
  TGI: 0.581 µM
IGROV1 ovarian
  GI50: 0.953 µM
  TGI: 2.63 µM
SF-268 CNS
  GI50: 0.354 µM
  TGI: 1.05 µM
ACHN renal
  GI50: 0.546 µM
  TGI: 13.6 µM
A549 NSCLC
  GI50: 0.626 µM
  TGI: 2.2 µM
SNB-75 CNS
  GI50: 0.381 µM
  TGI: 1.23 µM
OVCAR-3 ovarian
  GI50: 0.237 µM
  TGI: 0.582 µM
786-0 renal
  GI50: 0.261 µM
  TGI: 0.63 µM
SN12C renal
  GI50: 0.652 µM
  TGI: 4.13 µM
OVCAR-4 ovarian
  GI50: 0.377 µM
  TGI: 1.97 µM
NCI/ADR-RES ovarian
  GI50: 0.194 µM
  TGI: 0.355 µM
UO-31 renal
  GI50: 1.94 µM
  TGI: 9.3 µM
MDA-MB-435 melanoma
  GI50: 0.217 µM
  TGI: 0.425 µM
M14 melanoma
  GI50: 0.29 µM
  TGI: 0.653 µM
EKVX NSCLC
  GI50: 0.431 µM
  TGI: 6.44 µM
HT29 colon
  GI50: 0.303 µM
  TGI: 0.988 µM
HS 578T breast
  GI50: 0.178 µM
  TGI: 0.355 µM
MALME-3M melanoma
  GI50: 0.334 µM
  TGI: 1.1 µM
TK-10 renal
  GI50: 0.548 µM
  TGI: 7.54 µM

## O=C(O)c1ccc(CN2CCC(CN[C@@H]3C[C@H]3c3ccccc3)CC2)cc1
SK-MEL-28 melanoma
  GI50: > 100 µM
  TGI: > 100 µM
SK-MEL-2 melanoma
  GI50: > 100 µM
  TGI: > 100 µM
NCI-H226 lung
  GI50: > 100 µM
  TGI: > 100 µM
KM12 colon
  GI50: > 100 µM
  TGI: > 100 µM
NCI-H522 lung
  GI50: > 100 µM
  TGI: > 100 µM
HL-60(TB) leukemia
  GI50: > 100 µM
  TGI: > 100 µM
UACC-62 melanoma
  GI50: > 100 µM
  TGI: > 100 µM
HOP-62 NSCLC
  GI50: > 100 µM
  TGI: > 100 µM
MOLT-4 leukemia
  GI50: > 100 µM
  TGI: > 100 µM
MDA-MB-231 breast
  GI50: > 100 µM
  TGI: > 100 µM
HCC-2998 colon
  GI50: > 100 µM
  TGI: > 100 µM
NCI-H322M lung
  GI50: > 100 µM
  TGI: > 100 µM
CAKI-1 renal
  GI50: > 100 µM
  TGI: > 100 µM
NCI-H23 lung
  GI50: > 100 µM
  TGI: > 100 µM
HCT-15 colon
  GI50: > 100 µM
  TGI: > 100 µM
MDA-MB-468 breast
  GI50: > 100 µM
  TGI: > 100 µM
SW-620 colon
  GI50: > 100 µM
  TGI: > 100 µM
DU-145 prostate
  GI50: > 100 µM
  TGI: > 100 µM
HOP-92 NSCLC
  GI50: > 100 µM
  TGI: > 100 µM
MCF7 breast
  GI50: > 100 µM
  TGI: > 100 µM
NCI-H460 NSCLC
  GI50: > 100 µM
  TGI: > 100 µM
RXF 393 renal
  GI50: > 100 µM
  TGI: > 100 µM
K-562 leukemia
  GI50: > 100 µM
  TGI: > 100 µM
PC-3 prostate
  GI50: > 100 µM
  TGI: > 100 µM
CCRF-CEM leukemia
  GI50: > 100 µM
  TGI: > 100 µM
SF-295 CNS
  GI50: > 100 µM
  TGI: > 100 µM
LOX IMVI melanoma
  GI50: > 100 µM
  TGI: > 100 µM
U251 glioblastoma
  GI50: > 100 µM
  TGI: > 100 µM
BT-549 breast
  GI50: > 100 µM
  TGI: > 100 µM
IGROV1 ovarian
  GI50: > 100 µM
  TGI: > 100 µM
SF-268 CNS
  GI50: > 100 µM
  TGI: > 100 µM
ACHN renal
  GI50: > 100 µM
  TGI: > 100 µM
A549 NSCLC
  GI50: > 100 µM
  TGI: > 100 µM
SNB-75 CNS
  GI50: > 100 µM
  TGI: > 100 µM
OVCAR-3 ovarian
  GI50: > 100 µM
  TGI: > 100 µM
786-0 renal
  GI50: > 100 µM
  TGI: > 100 µM
SN12C renal
  GI50: > 100 µM
  TGI: > 100 µM
OVCAR-4 ovarian
  GI50: > 100 µM
  TGI: > 100 µM
NCI/ADR-RES ovarian
  GI50: > 100 µM
  TGI: > 100 µM
UO-31 renal
  GI50: > 100 µM
  TGI: > 100 µM
MDA-MB-435 melanoma
  GI50: > 100 µM
  TGI: > 100 µM
M14 melanoma
  GI50: > 100 µM
  TGI: > 100 µM
EKVX NSCLC
  GI50: > 100 µM
  TGI: > 100 µM
HT29 colon
  GI50: > 100 µM
  TGI: > 100 µM
HS 578T breast
  GI50: > 100 µM
  TGI: > 100 µM
MALME-3M melanoma
  GI50: > 100 µM
  TGI: > 100 µM
TK-10 renal
  GI50: > 100 µM
  TGI: > 100 µM
